The values below come from publication PMC4000408, “No clinically significant drug interactions between lenalidomide and P-glycoprotein substrates and inhibitors: results from controlled phase I studies in healthy volunteers” (Cancer Chemotherapy and Pharmacology, 2014).

The AUC(0-inf) is the area under the concentration-time curve extrapolated to infinity. What is called AUC(0-t) is the area under the concentration-time curve up to a stated or last time point. What is called Cmax is the highest concentration seen after dosing. In general, half-life refers to how long it takes for the measured level to halve. By Tmax is commonly meant the time from dosing to the highest level. By Ki is commonly meant the equilibrium dissociation constant of an inhibitor or competing ligand from its target.

Read-outs that look alike come from different tables or passages of the source. A value given as a limit tells only on which side of the number the result lay.

On the set-up of data set [1]: method as in ref 15 = [15]; PMID 21825263; doi:10.1200/JCO.2010.32.4962; 15. Hofmeister CC Yang X Pichiorri F Chen P Rozewski DM Johnson AJ Lee S Liu Z Garr CL Hade EM Ji J Schaaf LJ Benson DM Jr Kraut EH Hicks WJ Chan KK Chen CS Farag SS Grever MR Byrd JC Phelps MA Phase. Conditions: MM patients, cited from earlier work.
A short description of data set [2]: Study 2, Part 2: lenalidomide-temsirolimus pharmacokinetic interaction, open-label crossover in healthy subjects. Type of data set: in vivo, human. Conditions: for AUC(0-inf) / AUC(0-t) / Cmax / half-life / CL renal / fe (cumulative urinary excretion as a percentage of administered dose): geometric mean (geometric CV %); for Tmax: median (range); for CL renal: plasma and urine, read-out: CLR (renal clearance); for fe (cumulative urinary excretion as a percentage of administered dose): urine. The method, then:
Study 2, Part 2 was designed as an open-label, fixed-sequence, 3-period, crossover trial. In Period 1, subjects received a single oral dose of 25 mg lenalidomide; in Period 2, subjects received a single dose of temsirolimus 25 mg via a 30-min intravenous (IV) infusion; and in Period 3, subjects received both a single 25 mg oral dose of lenalidomide and a single 25 mg IV dose of temsirolimus. Pre-treatment with IV diphenhydramine (25 mg) was administered 30 min prior to start of each temsirolimus infusion. There was a 7–10 day washout between Study Periods 1 and 2, and a minimum 14-day washout between Study Periods 2 and 3.

Data set [3] can be described thus: Study 1: lenalidomide-digoxin pharmacokinetic interaction, double-blind placebo-controlled crossover in healthy subjects. Particulars: for T max: median (range). The method, then:
Study 1 was designed as a double-blind, placebo-controlled, randomized, 2-period, crossover trial. Subjects were randomized to receive either lenalidomide 10 mg/day for 7 days in Study Period 1 and the matching placebo for 7 days in Study Period 2, or to receive the same two treatments in the reverse order. […] A 10-day washout separated the study periods.
For analysis of lenalidomide in plasma and urine, the assay ranges were 5–1,000 and 100–20,000 ng/mL, respectively, and the details of methods were described previously. […] C [2, 3] H7]-temsirolimus were quantitatively extracted from whole blood sample by protein precipitation extraction.
Non-compartmental pharmacokinetic parameters were estimated from drug concentration–time profiles. Major pharmacokinetic parameters included C max, time to reach C max (T max), terminal-phase half-life (t 1/2), AUC from time zero to the last measurable concentration (AUCt), AUC from time zero to infinity (AUC∞), cumulative urinary excretion as a percentage of administered dose (fe), and renal clearance (CLR).
An analysis of variance (ANOVA) was performed on the natural log-transformed pharmacokinetic parameters to estimate the percentage ratio of geometric means between treatments, and the 90 % confidence interval (CI) for key pharmacokinetic parameters.

Data set [4] is described as follows: Safety evaluation in the phase I studies (AEs, laboratory values, ECG, vital signs). Conditions: lenalidomide given with digoxin, quinidine or temsirolimus vs lenalidomide alone or with placebo. Type of data set: in vivo, human. The procedure: Safety was evaluated throughout each study by monitoring AEs, physical examinations, vital signs, clinical laboratory values, and 12-lead electrocardiogram results and was summarized using descriptive statistics.

For data set [5] the following is noted: cited from earlier work.
The test system of another data set is human P-gp. More on the design: method as in ref 14, 15 = [14]; 14. Kumar GN, Surapaneni S, Lau H, Laskin O, Fox L (2008) Interaction of lenalidomide with human drug transporters in vitro [abstract 381]. ISSX Online Abstracts Supplement 3 (No. 3). Presented at the || [15]; PMID 21825263; doi:10.1200/JCO.2010.32.4962; 15. Hofmeister CC Yang X Pichiorri F Chen P Rozewski DM Johnson AJ Lee S Liu Z Garr CL Hade EM Ji J Schaaf LJ Benson DM Jr Kraut EH Hicks WJ Chan KK Chen CS Farag SS Grever MR Byrd JC Phelps MA Phase. Particulars: monolayers of LLC-PK1 and MDCKII cell lines expressing human P-gp; cited from earlier work.

On the set-up of data set [6]: method as in PMID 22213235. Conditions: cited from earlier work.
The nature of data set [7]: Study 2, Part 1: lenalidomide-quinidine pharmacokinetic interaction, open-label crossover in healthy subjects. Type of data set: in vivo, human. Particulars: for fe (cumulative urinary excretion as a percentage of administered dose): urine. The method, then:
Study 2, Part 1 was designed as an open-label, fixed-sequence, 2-period, crossover trial. In Period 1, subjects received a single oral dose of 25 mg lenalidomide. […] Study periods were separated by a washout of 7–10 days. In both periods, serial blood samples were collected, and urine samples were pooled over specified intervals for up to 48-h post-lenalidomide dosing to determine plasma and urine lenalidomide concentrations.

The test system of the next data set is P-gp. Conditions: up to a concentration of 300 μM, P-gp expressing LLC-PK1 cell line; cited from earlier work.
Another data set has as its system CYP3A4. Particulars: cited from earlier work.
The subject of a further data set is human P-gp transporters. Particulars: read-out: Ki for inhibiting human P-gp transporters in vitro; cited from earlier work.
Setting [8] is: human, temsirolimus 25 mg IV + lenalidomide 25 mg (n = 11), whole blood.
Setting [9] is: human, temsirolimus 25 mg IV alone (n = 14), whole blood.
[10] abbreviates: human, oral, lenalidomide 25 mg alone (n = 14), plasma, geometric mean (geometric CV %).
Where [11] appears, read: human, oral, lenalidomide 25 mg alone (n = 17), plasma.
The mark [12] stands for this setting: human, lenalidomide 25 mg + temsirolimus 25 mg IV (n = 11), plasma.

In the case of `CO[C@H]1C[C@@H]2CC[C@@H](C)[C@@](O)(O2)C(=O)C(=O)N2CCCC[C@H]2C(=O)O[C@H]([C@H](C)C[C@@H]2CC[C@@H](OC(=O)C(C)(CO)CO)[C@H](OC)C2)CC(=O)[C@H](C)/C=C(\C)[C@@H](O)[C@@H](OC)C(=O)[C@H](C)C[C@H](C)/C=C/C=C/C=C/1C` [Temsirolimus], the “C max and AUC of temsirolimus with increasing doses of lenalidomide” value in data set [1] (temsirolimus 15 mg/day, lenalidomide 15–25 mg/day) is listed as “increase”. For the same compound, in [2] (human, in vivo), the “90 % CIs for the ratio of geometric means, temsirolimus alone vs temsirolimus plus lenalidomide, for C max and AUCt” value was “completely contained within the limits l of 80 and 125%”. Besides, in data set [2] (setting [8]), the AUC(0-inf) turned out to be 2710 ng·h/mL, the AUC(0-t) worked out at 2570 ng·h/mL, the Cmax worked out at 649 ng/mL and the half-life was 15.2 h. Besides, the Tmax in [2] (setting [8]) is 0.47 h. In data set [2] (setting [9]), this compound gave a total exposure AUC(0-inf) of 2800 ng·h/mL, an AUC(0-t) of 2670 ng·h/mL, a Cmax of 586 ng/mL and a half-life of 15.3 h. Besides, in data set [2] (setting [9]), the time to peak (Tmax) came to 0.47 h.
Regarding `C[C@H]1O[C@@H](O[C@H]2[C@@H](O)C[C@H](O[C@H]3[C@@H](O)C[C@H](O[C@H]4CC[C@@]5(C)[C@H](CC[C@@H]6[C@@H]5C[C@@H](O)[C@]5(C)[C@@H](C7=CC(=O)OC7)CC[C@]65O)C4)O[C@@H]3C)O[C@@H]2C)C[C@H](O)[C@@H]1O` [Digoxin], the T max in data set [3] (digoxin 0.5 mg + lenalidomide 10 mg/day (n = 17), plasma) is 1.0 (1–3) h. Moreover, the T max in data set [3] (digoxin 0.5 mg alone (with placebo) (n = 17), plasma) was 1.0 (1–3) h. In addition, in data set [3] (human, plasma, oral, 0.5 mg), the AUC(0-inf) turned out to be 26.3 ng·h/mL, the AUC(0-t) worked out at 19.1 ng·h/mL, the Cmax came out at 1.69 ng/mL and the half-life was 32.3 h.
As for `Nc1cccc2c1CN(C1CCC(=O)NC1=O)C2=O` (stereo not shown) [Lenalidomide], in [4], the “Number of subjects reporting AEs, or number of AEs reported” value is “no apparent increase”. For the same compound, the “C max and AUC of lenalidomide with increasing doses of temsirolimus” value in data set [1] (lenalidomide 25 mg/day, temsirolimus 15–20 mg/day) is reported as “increase”. In addition, the “Absorption after oral administration” value in data set [5] was above 90%. In data set [5], the “Administered dose eliminated by renal excretion of the unchanged drug” value is recorded as “Approximately 80%”. Moreover, the Bioavailability in [5] (known high bioavailability) was above 90%. Also, in the data set with human P-gp, the Efflux ratio result is “approximately 3”. Moreover, in [6] (MM patient, lenalidomide 10 mg/day + itraconazole 100 mg/day vs lenalidomide 25 mg/day alone), the “Lenalidomide AUC with itraconazole relative to other MM patients receiving lenalidomide alone” value is 12 fold. Moreover, the “Elimination half-life (t 1/2)” value in data set [6] (with itraconazole) is recorded as 5.5 h; in [6] (without itraconazole), 6.7 h. The AUC(0-inf) in data set [7] (setting [10]) amounted to 1360 ng·h/mL; in data set [2] (setting [11]), 1350 ng·h/mL; in data set [2] (setting [12]), 1440 ng·h/mL; in data set [3] (human, in vivo, 10 mg), 475 ng·h/mL. In addition, the AUC(0-t) in data set [7] (setting [10]) came to 1290 ng·h/mL; in data set [2] (setting [11]), 1280 ng·h/mL; in data set [2] (setting [12]), 1370 ng·h/mL; in data set [3] (human, in vivo, 10 mg) it was 396 ng·h/mL. Also, the half-life was 2.81 h in [7] (setting [10]); 2.81 h in data set [2] (setting [11]); 2.69 h in [2] (setting [12]); 2.4 h in [3] (human, in vivo, 10 mg). Besides, the Cmax in data set [7] (human, oral, lenalidomide 25 mg alone (n = 14), plasma, geometric mean (geometric CV %), read-out: Cmax) was 367 ng/mL; in [2] (setting [11]) it was 364 ng/mL; in data set [2] (setting [12]), 361 ng/mL; in data set [3] (human, in vivo, 10 mg) it was 119 ng/mL. Moreover, the Tmax in data set [7] (human, oral, lenalidomide 25 mg alone (n = 14), plasma, median (range)) is 1 h; in data set [2] (setting [11]), 0.5 h; in data set [2] (setting [12]) it was 1 h; in data set [3] (human, in vivo, 10 mg), 1 h. Also, the CL renal turned out to be 227 mL/min in data set [7] (human, plasma and urine, oral, lenalidomide 25 mg alone (n = 14), geometric mean (geometric CV %), read-out: CLR (renal clearance)); 251 mL/min in [2] (human, oral, lenalidomide 25 mg alone (n = 17)); 229 mL/min in data set [2] (human, lenalidomide 25 mg + temsirolimus 25 mg IV (n = 11)). Besides, the “90 % CIs for the ratio of geometric means, lenalidomide alone vs plus an interacting drug, for renal clearance” value in data set [7] (interacting drug quinidine or temsirolimus (Study 2)) is “completely contained within the limits of 80 and 125%”. The “fe (cumulative urinary excretion as a percentage of administered dose)” value is reported as 70.2 (6.6) % dose in data set [7] (lenalidomide 25 mg + quinidine (n = 14), geometric mean (geometric CV %)); 74.2 (11.4) % dose in data set [7] (lenalidomide 25 mg alone (n = 14), geometric mean (geometric CV %)); 79.6 (8.0) % dose in [2] (lenalidomide 25 mg + temsirolimus 25 mg IV (n = 11)); 81.0 (10.0) % dose in [2] (lenalidomide 25 mg alone (n = 17)). For the same compound, in [7] (post-dose, under all treatment conditions (alone, + quinidine, + temsirolimus)), the “Time by which urinary excretion of unchanged lenalidomide was nearly complete” value was at most 12 h. Besides, the “90 % CIs for the ratio of geometric means, lenalidomide alone vs plus an interacting drug, for Cmax and AUC in plasma” value in data set [3] (human, in vivo) is “completely contained within the limits of 80 and 125%”. Further, the “Median time of observed Cmax of lenalidomide” value in data set [3] (human, in vivo) was 0.5 to 1 h. The “Inhibition of P-gp-dependent transport of digoxin” value in the data set with P-gp was “did not inhibit”. The “CYP3A4 substrate, inhibitor or inducer status” value with CYP3A4 is “not a substrate, inhibitor, or inducer of CYP3A4”.
Consider `C=C[C@H]1C[N@@]2CC[C@H]1C[C@@H]2[C@@H](O)c1ccnc2ccc(OC)cc12` [Quinidine], for which, in the data set with human P-gp transporters, the Ki is 900 nM. Further, in data set [7] (assuming 15 % of unbound drug), the “Estimated mean C max for unbound quinidine” value is given as “approximately 1 μM”. For the same compound, the peak concentration (Cmax) in [7] (human, oral, 600 mg twice daily, plasma, Day 4, CV % 24.3) worked out at 2350 ng/mL. Besides, in data set [7] (plasma, Days 4–5, quinidine sulfate 600 mg twice daily), the “Mean quinidine trough concentration” value is 1,705 ng/mL.
